Results as given in patent US12391674B2, “Heterocyclic compounds for the treatment of epilepsy” (OTSUKA PHARMACEUTICAL CO., LTD., priority 2018, dated 2025).
Counter-ions that a name gives are not always drawn.

System: DBA/2 mice
Assay: Audiogenic seizure model
Assay type: in vivo
Conditions: Mus musculus, DBA/2 mice, oral, auditory stimulation 1 hour after administration, read-out: Seizure suppression
Procedure: The animal model used in this test is a phenotype model for partial seizure (including secondary generalized seizure) and generalized tonic-clonic seizure, and has high clinical predictability. This test was performed in accordance with the report of De Sarro et al (Br J Pharmacol. 1988 February; 93 (2): 247-56. Anticonvulsant effects of some calcium entry blockers in DBA/2 mice. De Sarro G B, Meldrum B S, Nistico G.).
In this test example, the example compounds shown in Tables 3-1 to 3-3 below were used as test compounds.
The test compounds were suspended in 5% gum arabic/distilled water (w/v), and administered by forced oral administration to male and female DBA/2 mice (Japan SLC, Inc., 3 weeks old, 8 per group) at a dose of 30 mg/kg. After one hour of the oral administration of the test compound, each mouse was placed in a transparent acrylic cylinder 30 cm high and 23 cm in diameter, and 30 seconds were allowed for habituation. Then, they were exposed to auditory stimulation (12.6 kHz, 100-110 dB) for 1 minute or until a tonic seizure occurred.
The seizure response was assessed using the following scale, 0: no seizure, 1: wild running, 2: clonic seizure, 3: tonic seizure and 4: respiratory arrest. The maximum response was recorded as the seizure severity score.
The seizure suppression rate for each compound administration group was calculated according to the following formula.
Here, a rate of seizure suppression of 90% or more was expressed as “A”, a rate of seizure suppression of 70% or more and less than 90% was expressed as “B”, and a rate of seizure suppression of 50% or more and less than 70% was expressed as “C”.

SMILES | inhibition in vivo at 30 mg/kg [%] | inhibition in vivo at 5 mg/kg (dose 5 mg/kg) [%]
Cc1cn2cc(-c3cnc(Oc4cccc(F)c4)nc3)ccc2n1 [Example 179] | > 90 | 
Cc1cn2cc(-c3cnc(Oc4ccc(F)cc4)nc3)ccc2n1 [Example 180] | > 90 | 
Cc1cn2ccc(-c3cnc(Oc4ccccc4F)nc3)cc2n1 [Example 182] | > 90 | 
Cc1cn2ccc(-c3cnc(Oc4cccc(F)c4)nc3)cc2n1 [Example 183] | > 90 | 
Fc1ccccc1Oc1ncc(-c2ccn3nncc3c2)cn1 [Example 185] | > 90 | 
Fc1cccc(Oc2ncc(-c3ccn4nncc4c3)cn2)c1 [Example 186] | > 90 | 
Fc1ccc(Oc2ncc(-c3ccn4nncc4c3)cn2)cc1 [Example 187] | > 90 | 
Fc1cccc(Oc2ncc(-c3cnc4ncnn4c3)cn2)c1 [Example 189] | > 90 | 
Cc1cnc2ccc(-c3cnc(Oc4ccccc4F)nc3)cn12 [Example 191] | > 90 | 
Cc1cnc2ccc(-c3cnc(Oc4cccc(F)c4)nc3)cn12 [Example 192] | > 90 | 
Cc1cnc2ccc(-c3cnc(Oc4ccc(F)cc4)nc3)cn12 [Example 193] | > 90 | 
Fc1ccccc1Oc1ncc(-c2ccn3nccc3c2)cn1 [Example 195] | > 90 | 
Fc1cccc(Oc2ncc(-c3ccn4nccc4c3)cn2)c1 [Example 196] | > 90 | 
Fc1ccc(Oc2ncc(-c3ccn4nccc4c3)cn2)cc1 [Example 197] | > 90 | 
Cc1c(-c2cnc(Oc3ccccc3F)nc2)ccc2nccn12 [Example 199] | > 90 | 
Cc1c(-c2cnc(Oc3cccc(F)c3)nc2)ccc2nccn12 [Example 200] | > 90 | 
Cc1c(-c2cnc(Oc3ccc(F)cc3)nc2)ccc2nccn12 [Example 201] | > 90 | 
Cc1nc2ccc(-c3cnc(Oc4ccccc4F)nc3)cn2c1C [Example 202] | > 90 | 
Cc1nc2ccc(-c3cnc(Oc4ccc(F)cc4)nc3)cn2c1C [Example 203] | > 90 | 
Cc1nc2cc(-c3cnc(Oc4ccccc4F)nc3)ccn2c1C [Example 205] | > 90 | 
Cc1nc2cc(-c3cnc(Oc4cccc(F)c4)nc3)ccn2c1C [Example 206] | > 90 | 
Cc1nc2cc(-c3cnc(Oc4ccc(F)cc4)nc3)ccn2c1C [Example 207] | > 90 | 
COCc1cn2cc(-c3cnc(Oc4ccccc4)nc3)ccc2n1 [Example 208] | > 90 | 
COCc1cn2cc(-c3cnc(Oc4ccccc4F)nc3)ccc2n1 [Example 209] | > 90 | 
COCc1cn2cc(-c3cnc(Oc4cccc(F)c4)nc3)ccc2n1 [Example 210] | > 90 | 
Fc1cccc(Oc2ncc(-c3ccn4cnnc4c3)cn2)c1 [Example 212] | > 90 | 

SMILES | inhibition in vivo at 30 mg/kg [%] | inhibition in vivo at 5 mg/kg (dose 5 mg/kg) [%]
Fc1ccc(Oc2ncc(-c3ccn4cnnc4c3)cn2)cc1 [Example 213] | > 90 | 
Cn1ccc2ccc(-c3cnc(Oc4ccccc4)nc3)nc21 [Example 215] | > 90 | 
Fc1ccccc1Oc1ncc(-c2ccn3cc(C(F)(F)F)nc3c2)cn1 [Example 217] | > 90 | 
Fc1cccc(Oc2ncc(-c3ccn4cc(C(F)(F)F)nc4c3)cn2)c1 [Example 218] | > 90 | 
Fc1ccc(Oc2ncc(-c3ccn4cc(C(F)(F)F)nc4c3)cn2)cc1 [Example 219] | > 90 | 
O=C1NCCCN1c1cnc(Oc2cccc(F)c2)nc1 [Example 221, 1-(2-(3-Fluorophenoxy)Pyrimidin-5-Yl)Tetrahydropyrimidin-2 (1H)-One] | > 90 | 
Fc1ccc(Oc2ncc(N3CCOCC3)cn2)cc1 [Example 225] | > 90 | 
OC1CCN(c2cnc(Oc3cccc(F)c3)nc2)CC1 [Example 227] | > 90 | 
OC1CCN(c2cnc(Oc3ccc(F)cc3)nc2)CC1 [Example 228] | > 90 | 
O=C1COCCN1c1cnc(Oc2cccc(F)c2)nc1 [Example 230] | > 90 | 
O=C1COCCN1c1cnc(Oc2ccc(F)cc2)nc1 [Example 231] | > 90 | 
O=C1CCOCCN1c1cnc(Oc2ccccc2)nc1 [Example 232] | > 90 | 
O=C1CCOCCN1c1cnc(Oc2cccc(F)c2)nc1 [Example 233] | > 90 | 
O=C1CCOCCN1c1cnc(Oc2ccc(F)cc2)nc1 [Example 234] | > 90 | 
Cc1nc2cc(-c3cnc(Oc4ccccc4)nc3)ccc2s1 [Example 238] | > 90 | 
Nc1nc2ccc(-c3cnc(Oc4ccccc4)nc3)cc2s1 [Example 240, 6-(2-Phenoxypyrimidin-5-Yl)Benzo[d]Thiazol-2-Amine] | > 90 | 
c1ccc(Oc2ncc(-c3ccc4scnc4c3)cn2)cc1 [Example 241] | > 90 | 
c1ccc(Oc2ncc(-c3ccc4cccnc4c3)cn2)cc1 [Example 244] | > 90 | 
O=C1CCc2ccc(-c3cnc(Oc4ccccc4)nc3)cc2N1 [Example 246] | > 90 | 
O=C1NCCc2cc(-c3cnc(Oc4ccccc4)nc3)ccc21 [Example 247] | > 90 | 
c1ccc(Oc2ncc(-c3cccc4ccncc34)cn2)cc1 [Example 249] | > 90 | 
c1ccc(Oc2ncc(-c3ccc4ncccc4c3)cn2)cc1 [Example 250] | > 90 | 
c1ccc(Oc2ncc(-c3ccc4cnccc4c3)cn2)cc1 [Example 251] | > 90 | 
c1ccc(Oc2ncc(-c3ccc4ccncc4c3)cn2)cc1 [Example 252] | > 90 | 
c1ccc(Oc2ncc(-c3ccc4nccnc4c3)cn2)cc1 [Example 253] | > 90 | 
O=c1[nH]cnc2ccc(-c3cnc(Oc4ccccc4)nc3)cc12 [Example 254] | > 90 | 

SMILES | inhibition in vivo at 30 mg/kg [%] | inhibition in vivo at 5 mg/kg (dose 5 mg/kg) [%]
c1ccc(Oc2ncc(-c3ccc4ncncc4c3)cn2)cc1 [Example 255] | > 90 | 
c1ccc(Oc2ncc(-c3ccc4[nH]cnc4c3)cn2)cc1 [Example 257, 5-(2-Phenoxypyrimidin-5-Yl)-1H-Benzo[d]Imidazole Oxalate] | > 90 | 
Cn1ccc2cc(-c3cnc(Oc4ccccc4)nc3)ccc21 [Example 260] | > 90 | 
Nc1nccc2c(-c3cnc(Oc4ccccc4)nc3)cccc12 [Example 261] | > 90 | 
Cn1ccc2c(-c3cnc(Oc4ccccc4)nc3)cccc21 [Example 263] | > 90 | 
O=C1Cc2cc(-c3cnc(Oc4ccccc4F)nc3)ccc2N1 [Example 264] | > 90 | > 90
O=C1Cc2cc(-c3cnc(Oc4cccc(F)c4)nc3)ccc2N1 [Example 265] | > 90 | 
O=C1Cc2cc(-c3cnc(Oc4ccc(F)cc4)nc3)ccc2N1 [Example 266] | > 90 | 
Clc1cc2c(-c3cnc(Oc4ccccc4)nc3)cccc2cn1 [Example 268] | > 90 | 
O=C1Cc2ccc(-c3cnc(Oc4ccccc4F)nc3)cc2N1 [Example 269] | > 90 | 
O=C1CCc2cc(-c3cnc(Oc4ccccc4F)nc3)ccc2N1 [Example 270] | > 90 | 
O=C1Nc2ccc(-c3cnc(Oc4ccccc4)nc3)cc2C1=O [Example 271] | > 90 | 
O=C1Cc2c(cccc2-c2cnc(Oc3ccccc3)nc2)N1 [Example 272] | > 90 | 
COc1nc(Oc2ccccc2)ncc1-c1cccc2c1CC(=O)N2 [Example 273] | > 90 | 
COc1nc(Oc2ccccc2)ncc1-c1ccc2c(c1)CC(=O)N2 [Example 274] | > 90 | 
Cn1ncc2ccc(-c3cnc(Oc4ccccc4F)nc3)nc21 [Example 276] | > 90 | 
Cn1ncc2ccc(-c3cnc(Oc4cccc(F)c4)nc3)nc21 [Example 277] | > 90 | 
Cn1ncc2ccc(-c3cnc(Oc4ccc(F)cc4)nc3)nc21 [Example 278] | > 90 | 
Fc1ccccc1Oc1ncc(-c2ccc3nnc(C(F)(F)F)n3c2)cn1 [Example 280] | > 90 | 
Fc1cccc(Oc2ncc(-c3ccc4nnc(C(F)(F)F)n4c3)cn2)c1 [Example 281] | > 90 | 
Fc1ccc(Oc2ncc(-c3ccc4nnc(C(F)(F)F)n4c3)cn2)cc1 [Example 282] | > 90 | 
Fc1ccccc1Oc1ncc(-c2ccc3cnc(C(F)(F)F)n3c2)cn1 [Example 286] | > 90 | 
Fc1cccc(Oc2ncc(-c3ccc4cnc(C(F)(F)F)n4c3)cn2)c1 [Example 287] | > 90 | 
Fc1ccc(Oc2ncc(-c3ccc4cnc(C(F)(F)F)n4c3)cn2)cc1 [Example 288] | > 90 | 
Fc1ccccc1Oc1ncc(-c2ccc3nncn3n2)cn1 [Example 290] | > 90 | 
